Results from patent publication US20250163051A1, “PYRIMIDO AROMATIC RING COMPOUND AND USE THEREOF IN DRUG” (SUNSHINE LAKE PHARMA CO., LTD., priority 2022, published 2025).

Key:
[1] = target: T1, hTLR8 (Homo sapiens, UniProt Q9NR97); assay: Agonistic activity on human TLR8 in HEK-Blue hTLR8 cells (QUANTI-Blue); assay type: cell-based; settings: 24 h incubation, OD650, read-out: hTLR 8 EC50
T1 construct: expressed in transfected cells; host or cells: HEK-Blue hTLR8 cells
T1 sequence (Q9NR97 27-1041): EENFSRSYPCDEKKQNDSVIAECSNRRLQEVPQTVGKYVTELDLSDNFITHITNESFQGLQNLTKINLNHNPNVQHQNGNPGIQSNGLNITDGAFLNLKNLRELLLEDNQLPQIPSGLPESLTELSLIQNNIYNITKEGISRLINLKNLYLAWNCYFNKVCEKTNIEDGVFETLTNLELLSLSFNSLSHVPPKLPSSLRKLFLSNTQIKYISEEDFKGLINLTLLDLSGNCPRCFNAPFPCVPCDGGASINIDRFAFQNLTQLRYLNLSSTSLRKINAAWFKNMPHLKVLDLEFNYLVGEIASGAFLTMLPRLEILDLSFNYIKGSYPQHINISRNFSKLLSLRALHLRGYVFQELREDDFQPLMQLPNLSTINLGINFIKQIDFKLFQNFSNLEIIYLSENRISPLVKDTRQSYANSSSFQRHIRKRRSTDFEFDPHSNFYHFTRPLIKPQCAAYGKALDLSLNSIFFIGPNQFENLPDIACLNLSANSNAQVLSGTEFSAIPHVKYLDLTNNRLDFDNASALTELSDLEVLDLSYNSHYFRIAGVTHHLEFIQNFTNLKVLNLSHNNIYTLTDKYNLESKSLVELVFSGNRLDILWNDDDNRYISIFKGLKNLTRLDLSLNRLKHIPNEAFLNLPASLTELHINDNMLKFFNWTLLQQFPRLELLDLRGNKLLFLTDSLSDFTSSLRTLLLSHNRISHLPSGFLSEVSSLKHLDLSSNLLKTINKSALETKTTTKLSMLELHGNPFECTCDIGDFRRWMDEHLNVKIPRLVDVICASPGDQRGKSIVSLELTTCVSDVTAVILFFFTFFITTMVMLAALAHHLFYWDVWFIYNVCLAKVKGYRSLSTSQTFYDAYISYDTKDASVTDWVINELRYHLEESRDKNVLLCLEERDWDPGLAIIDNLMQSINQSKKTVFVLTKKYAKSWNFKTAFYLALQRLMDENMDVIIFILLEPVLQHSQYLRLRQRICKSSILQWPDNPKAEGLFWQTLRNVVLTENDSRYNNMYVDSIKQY
Method: (§1) Purpose: HEK-Blue™ hTLR7 and HEK-Blue™ hTLR8 cells were used to detect the agonist and cytotoxic activities of compounds against hTLR7 and hTLR8.
(§2) The experimental steps were as shown below: • 1) Preparation of compound: The compound was prepared into a 20 mM stock solution with DMSO, and then the stock solution was diluted 3-fold in a gradient and added to a 96-well plate, for a total of 10 concentrations, with duplicate wells for each concentration. For negative control wells, 0.5 μL DMSO was added to each well. The final DMSO concentration was 0.5%. • 2) HEK-Blue™ hTLR7 or HEK-Blue™ hTLR8 cells were suspended in culture medium and then seeded into 96-well plates containing compounds at a cell count of 50,000 per well. The compounds and cells were incubated for 24 h at 37° C., 5% Co2. • 3) QUANTI-Blue was used for the detection solution: to a mixture of 1 mL of QB reagent and 1 mL of QB buffer was added 98 mL of sterile water, the mixture was mixed and dissolved, and then placed at room temperature for 10 min. • 4) Activity test of the compound: 20 μL of the culture supernatant in step 2) was added to each well of a 96-well plate containing 180 μL of QUANTI-Blue detection solution. After incubation at 37° C. for 1 h, the absorbance at 650 nm (OD650) was detected using a multifunctional microplate reader Flextation III. • 5) Detection of cell activity: The chemiluminescent signal (RLU) was detected using the multifunctional microplate reader Flextation III according to the instructions of Celltiter-Glo. • 6) Data analysis
(§3) Activity of compounds: OD650 values were analyzed using GraphPad Prism software, and the compound dose-effect curves were fitted to calculate the EC50 values of the compounds.

[2] = target: T2, hTLR7 (Homo sapiens, UniProt Q9NYK1); assay: Agonistic activity on human TLR7 in HEK-Blue hTLR7 cells (QUANTI-Blue); assay type: cell-based; settings: 24 h incubation, OD650, read-out: hTLR 7 EC50
T2 construct: expressed in transfected cells; host or cells: HEK-Blue hTLR7 cells
T2 sequence (Q9NYK1 27-1049): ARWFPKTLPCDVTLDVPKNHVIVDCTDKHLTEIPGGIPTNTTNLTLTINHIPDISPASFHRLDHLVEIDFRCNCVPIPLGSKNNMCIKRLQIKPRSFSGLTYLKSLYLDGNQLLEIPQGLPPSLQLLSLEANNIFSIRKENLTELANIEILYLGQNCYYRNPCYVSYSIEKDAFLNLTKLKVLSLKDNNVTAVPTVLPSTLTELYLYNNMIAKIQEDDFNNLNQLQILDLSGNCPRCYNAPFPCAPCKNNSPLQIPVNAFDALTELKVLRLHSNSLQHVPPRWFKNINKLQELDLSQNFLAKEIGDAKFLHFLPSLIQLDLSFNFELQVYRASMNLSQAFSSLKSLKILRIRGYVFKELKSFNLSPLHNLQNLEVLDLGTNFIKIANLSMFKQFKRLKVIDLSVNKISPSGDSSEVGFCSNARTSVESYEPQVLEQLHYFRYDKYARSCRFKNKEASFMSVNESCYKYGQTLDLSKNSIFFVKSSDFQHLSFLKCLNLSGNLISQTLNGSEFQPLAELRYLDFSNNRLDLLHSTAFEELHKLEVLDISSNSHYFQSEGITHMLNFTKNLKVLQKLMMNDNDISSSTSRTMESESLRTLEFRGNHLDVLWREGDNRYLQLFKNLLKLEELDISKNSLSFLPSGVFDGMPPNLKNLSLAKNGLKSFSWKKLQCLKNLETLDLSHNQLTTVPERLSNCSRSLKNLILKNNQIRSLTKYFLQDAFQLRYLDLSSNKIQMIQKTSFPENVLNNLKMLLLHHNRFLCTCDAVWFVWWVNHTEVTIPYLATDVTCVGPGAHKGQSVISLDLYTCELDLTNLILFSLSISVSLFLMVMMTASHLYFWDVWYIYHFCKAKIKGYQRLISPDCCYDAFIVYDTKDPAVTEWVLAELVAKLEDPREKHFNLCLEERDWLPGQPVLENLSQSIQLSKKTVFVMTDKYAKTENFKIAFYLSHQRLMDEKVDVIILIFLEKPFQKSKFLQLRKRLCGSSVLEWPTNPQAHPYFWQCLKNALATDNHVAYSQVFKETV
Method: as §1, §2, §3

[3] = Cell toxicity (Celltiter-Glo) in HEK-Blue hTLR8 cells; settings: human

Row | Compound | EC50 [1] | EC50 [2] | CC50 at 24 h [3]
1 | C=CCCN(CCC=C)Cc1c[nH]c(=O)cc1-c1cnc2c(N[C@@](C)(CO)CCCC)nc(N)nc2c1 [Example 13] | 1.73 µM | 81.5 µM | 97.3 µM
2 | C=CCCN(C)Cc1c[nH]c(=O)cc1-c1cnc2c(N[C@@H](CO)CCCC)nc(N)nc2c1 [Example 42, (R)-4-(2-Amino-4-((1-hydroxyhexan-2-yl)amino)pyrido[3,2-d]pyrimidin-7-yl)-5-((but-3-en-1-yl (methyl)amino)methyl)pyridin-2(1H)-one] | 0.595 µM | > 100 µM | > 100 µM
3 | C=CCCN(C)Cc1c[nH]c(=O)cc1-c1cnc2c(N[C@](C)(CCCC)CNC(=O)c3cnn(C)c3)nc(N)nc2c1 [Example 44, (R)—N-(2-((2-Amino-7-(5-((but-3-en-1-yl(methyl)amino)methyl)-2-oxo-1,2-dihydropyridin-4-yl)pyrido[3,2-d]pyrimidin-4-yl)amino)-2-methylhexyl)-1-methyl-1H-pyrazole-4-carboxamide] | 0.166 µM | > 100 µM | > 100 µM
4 | CCCC[C@](C)(CO)Nc1nc(N)nc2cc(-c3cc(=O)n(C)cc3CN(C)CCC3CC3)cnc12 [Example 2] | 0.1 µM | > 100 µM | 
5 | C=CCCOCc1c[nH]c(=O)cc1-c1cnc2c(N[C@@](C)(CO)CCCC)nc(N)nc2c1 [Example 41, (R)-4-(2-Amino-4-((1-hydroxy-2-methylhexan-2-yl)amino)pyrido[3,2-d]pyrimidin-7-yl)-5-((but-3-en-1-yloxy)methyl)pyridin-2(1H)-one] | 0.354 µM | 29.9 µM | > 100 µM
6 | CCCC[C@](C)(CO)Nc1nc(N)nc2cc(-c3cc(=O)[nH]cc3CSC)cnc12 [Example 52, (R)-4-(2-Amino-4-((1-hydroxy-2-methylhexan-2-yl)amino)pyrido[3,2-d]pyrimidin-7-yl)-5-((methylthio)methyl)pyridin-2(1H)-one] | 0.03 µM | 18.4 µM | > 100 µM
7 | CCCC[C@](C)(CO)Nc1nc(N)nc2cc(-c3cc(=O)[nH]cc3CN3CCCCC3)ccc12 [Example 17] | 0.22 µM | > 100 µM | > 100 µM
8 | C=CCC(=O)N(C)Cc1c[nH]c(=O)cc1-c1cnc2c(N[C@@](C)(CO)CCCC)nc(N)nc2c1 [Example 40, (R)—N-((4-(2-Amino-4-((1-hydroxy-2-methylhexan-2-yl)amino)pyrido[3,2-d]pyrimidin-7-yl)-6-oxo-1,6-dihydropyridin-3-yl)methyl)-N-methylbut-3-enamide] | 1.52 µM | > 100 µM | > 100 µM
9 | CCCCNCc1cn(C)c(=O)cc1-c1ccc2c(N[C@@](C)(CO)CCCC)nc(N)nc2c1 [Example 62, (R)-4-(2-Amino-4-((1-hydroxy-2-methylhexan-2-yl)amino)quinazolin-7-yl)-5-((butylamino)methyl)-1-methylpyridin-2(1H)-one] | 0.198 µM | > 100 µM | > 100 µM
10 | CCCC[C@](C)(CO)Nc1nc(N)nc2cc(-c3cc(=O)[nH]cc3CN3CCNCC3)cnc12 [Example 15] |  |  | > 100 µM
11 | CCCCN(CCCC)Cc1cn(C)c(=O)cc1-c1cnc2c(N[C@@](C)(CO)CCCC)nc(N)nc2c1 [Example 4] | 1.07 µM | > 100 µM | 
12 | CCCC[C@](C)(CO)Nc1nc(N)nc2cc(-c3cc(=O)[nH]cc3CN(C)CCc3ccccc3)ccc12 [Example 29, (R)-4-(2-Amino-4-((1-hydroxy-2-methylhexan-2-yl)amino)quinazolin-7-yl)-5-((methyl(phenethyl)amino)methyl)pyridin-2(1H)-one] | 0.267 µM | 23.2 µM | 
13 | C#CCCN(C)Cc1cn(C)c(=O)cc1-c1cnc2c(N[C@@](C)(CO)CCCC)nc(N)nc2c1 [Example 6] | 3.9 µM | > 100 µM | 
14 | CCCC[C@](C)(CO)Nc1nc(N)nc2cc(-c3cc(=O)[nH]cc3CN(C)CCC3CC3)cnc12 [Example 12] | 0.019 µM | 50.8 µM | 
15 | C=CCCN(CCC=C)Cc1c[nH]c(=O)cc1-c1ccc2c(N[C@@](C)(CO)CCCC)nc(N)nc2c1 [Example 31] | 0.209 µM | 56.7 µM | 
16 | CCCCN(C)Cc1c[nH]c(=O)cc1-c1cnc2c(N[C@](C)(CCCC)COC)nc(N)nc2c1 [Example 53, (R)-4-(2-Amino-4-((1-methoxy-2-methylhexan-2-yl)amino)pyrido[3,2-d]pyrimidin-7-yl)-5-((butyl(methyl)amino)methyl)pyridin-2(1H)-one] | 0.68 µM |  | 
17 | CCCC[C@](C)(CO)Nc1nc(N)nc2cc(-c3cc(=O)[nH]cc3CN3CCC(F)(F)CC3)cnc12 [Example 26] | 0.845 µM | 54.6 µM | 
18 | C=CCCN(CCC=C)Cc1cn(C)c(=O)cc1-c1cnc2c(N[C@@](C)(CO)CCCC)nc(N)nc2c1 [Example 3] | 1.46 µM | > 100 µM | 
19 | CCCC[C@](C)(CO)Nc1nc(N)nc2cc(-c3cc(=O)[nH]cc3CN(C)CCc3ccccc3)cnc12 [Example 11] | 1.65 µM |  | 
20 | CCCC[C@](C)(CO)Nc1nc(N)nc2cc(-c3cc(=O)n(C)cc3CN(C)CCc3ccccc3)cnc12 [Example 1, (R)-4-(2-Amino-4-((1-hydroxy-2-methylhexan-2-yl)amino)pyrido[3,2-d]pyrimidin-7-yl)-1-methyl-5-((methyl(phenethyl)amino)methyl)pyridin-2(1H)-one] | 1.82 µM | 73 µM | 
21 | CCCC[C@H](CO)Nc1nc(N)nc2cc(-c3cc(=O)[nH]cc3CN(C)CCCC)cnc12 [Example 43, (R)-4-(2-Amino-4-((1-hydroxyhexan-2-yl)amino)pyrido[3,2-d]pyrimidin-7-yl)-5-((butyl(methyl)amino)methyl)pyridin-2(1H)-one] |  |  | > 100 µM
22 | CCCC[C@](C)(CO)Nc1nc(N)nc2cc(-c3cc(=O)[nH]cc3CN3CCCCC3)cnc12 [Example 16] | 0.104 µM | 65.8 µM | 
23 | C=CCCN(C)Cc1cn(C2CCN(C)CC2)c(=O)cc1-c1cnc2c(N[C@@](C)(CO)CCCC)nc(N)nc2c1 [Example 37, (R)-4-(2-Amino-4-((1-hydroxy-2-methylhexan-2-yl)amino)pyrido[3,2-d]pyrimidin-7-yl)-5-((but-3-en-1-yl(methyl)amino)methyl)-1-(1-methylpiperidin-4-yl)pyridin-2(1H)-one] | 0.397 µM | > 100 µM | 
24 | CCCCN(CCCC)Cc1c[nH]c(=O)cc1-c1ccc2c(N[C@@](C)(CO)CCCC)nc(N)nc2c1 [Example 32] | 0.399 µM | 47.2 µM | 
25 | CCCCN(C)Cc1c[nH]c(=O)cc1-c1cnc2c(N[C@@](C)(CO)CCCC)nc(N)nc2c1 [Example 69, 4-(2-Amino-4-((1-hydroxy-2-methylhexan-2-yl)amino)pyrido[3,2-d]pyrimidin-7-yl)-5-((butyl(methyl)amino)methyl)pyridin-2(1H)-one] | 0.023 µM | 12 µM | 
